Among the data in patent publication US20130090334A1, “AZABENZOXAZINE DERIVATIVES AS CRAC MODULATORS” (Hoffmann-La Roche Inc, priority 2011, published 2013) are IC50 values, retold here.

pIC50: −log10 of the molar value.

For one experiment, the system named is Jurkat cell. In words: Jurkat IL-2 Production Assay. The format is cell-based. The following applies: Homo sapiens, serum condition (1% FBS/PHA or 30% FBS/PMA-ionomycin) not specified. The protocol:
Jurkat IL-2 Production Assay
Cell: Jurkat cell (ATCC) was grown in RPMI 1640 with 10% FBS and 1% penicillin/streptomycin. The cell density was kept at 1.2˜18×10^6/mL in culture flask before seeding into culture plate, and the cell density in the plate was 0.5×10^6/200 μL/well.
Culture media: RPMI 1640 with 1% FBS or 30% FBS for high serum assay.
Test compound: serial dilution was done in 100% DMSO, and intermediate dilution was done with RPMI 1640 medium with 1% FBS. The DMSO final concentration in culture well was 0.25%.
Stimulant: PHA (Sigma#L9017-10MG) was used for the assay with 1% F/BS in culture medium, and added after 10 minutes exposure of cell to compound/DMSO. The PHA final concentration in culture well was 5 μg/mL. PMA (Sigma#P-8139 5MG)/Ionomycin (Sigma# I0634-5MG) was used for the assay with 30% FBS in culture medium, and added at same time point as the 1% FBS culture assay. The final concentration of PMA was […], and lonomycin final concentration was 500 ng/mL.
Incubation: at 37° C. with 5% CO2 and 95% humidity for 18 h˜20 h.
IC50: IC50 was calculated with the data analysis software XLfit4, General Pharmacology model 251.
In general, pIC50 refers to the IC50 on a negative log10 scale, so that one unit is a factor of ten. Low readings indicate a high IC50, high ones a low IC50. `CCn1nc(C(F)(F)F)cc1-c1cnc2c(c1)OCC(c1c(F)cccc1F)N2` (stereo not shown) [Example 1, 3-(2,6-Difluoro-phenyl)-7-(2-ethyl-5-trifluoromethyl-2H-pyrazol-3-yl)-3,4-dihydro-2H-pyrido[3,2-b][1,4]oxazine] gave a negative logarithm of the IC50 (pIC50) of 6.85.

The subject of the next experiment is human whole blood. Put plainly: Human Whole Blood (HWB) Assay, inhibition of T cell IL-2 production. It counts as cell-based. The following applies: IL-2 in plasma, human whole blood stimulated with 10 μM Thapsigargin overnight, AlphaLISA. The protocol: Human Whole Blood (HWB) Assay
Inhibition of T cell IL-2 production CRAC compounds were tested in human whole blood from normal donors. 200 μl of human whole blood was aliquoted into each well of a round bottom 96 well plate. Concentration-response curves were generated for test compounds and CsA (as controls) by performing serial dilutions of the compounds and incubating each concentration in a single well for 30 min (experiment was performed in triplicate). Following incubation, the blood was stimulated with 10 μM Thapsigargin (SIGMA) overnight at 37° C. IL-2 concentrations in the plasma were determined by AlphaLISA IL-2 assay (Perkin Elmer). Data analysis was performed using GraphPad PRISM5.
Consider `CCc1sc(-c2cccnc2)nc1-c1cnc2c(c1)OCC(c1c(F)cccc1F)N2` (stereo not shown) [Example 5, 3-(2,6-Difluoro-phenyl)-7-(5-ethyl-2-pyridin-3-yl-thiazol-4-yl)-3,4-dihydro-2H-pyrido[3,2-b][1,4]oxazine], for which the pIC50 is 6.25.

Take `CCn1nc(-c2cccnc2)cc1-c1cnc2c(c1)OCC(c1c(F)cccc1F)N2` (stereo not shown) [Example 2, 3-(2,6-Difluoro-phenyl)-7-(2-ethyl-5-pyridin-3-yl-2H-pyrazol-3-yl)-3,4-dihydro-2H-pyrido[3,2-b][1,4]oxazine]: the negative-log IC50 (pIC50) was 5.57.

In turn, `Cc1sc(-c2ccncc2)nc1-c1cnc2c(c1)OCC(c1c(F)cccc1F)N2` (stereo not shown) [Example 6, 3-(2,6-Difluoro-phenyl)-7-(5-methyl-2-pyridin-4-yl-thiazol-4-yl)-3,4-dihydro-2H-pyrido[3,2-b][1,4]oxazine] gave a pIC50 of 5.34.

In turn, `Cc1ccc(-c2ncco2)cc1-c1cnc2c(c1)OCC(c1c(F)cccc1F)N2` (stereo not shown) [Example 7, 3-(2,6-Difluoro-phenyl)-7-(2-methyl-5-oxazol-2-yl-phenyl)-3,4-dihydro-2H-pyrido[3,2-b][1,4]oxazine] showed a pIC50 of 5.09.

Regarding `Cc1sc(-c2ccccn2)nc1-c1cnc2c(c1)OCC(c1c(F)cccc1F)N2` (stereo not shown) [Example 4, 3-(2,6-Difluoro-phenyl)-7-(5-methyl-2-pyridin-2-yl-thiazol-4-yl)-3,4-dihydro-2H-pyrido[3,2-b][1,4]oxazine], the pIC50 was 5.20.

Turning to `CCn1nc(-c2cnccn2)cc1-c1cnc2c(c1)OCC(c1c(F)cccc1F)N2` (stereo not shown) [Example 3, 3-(2,6-Difluoro-phenyl)-7-(2-ethyl-5-pyrazin-2-yl-2H-pyrazol-3-yl)-3,4-dihydro-2H-pyrido[3,2-b][1,4]oxazine], the negative-log IC50 (pIC50) was 5.62.
